Literature values, collected in the CATMoS acute toxicity set (Mansouri et al. 2021).
Where “and” joins values, the source holds several entries; their conditions need not be identical. Identical values can stand only once.

Experiment: rat acute oral toxicity
Conditions: in vivo

CCCCCCCCCCCC[N+](C)(C)CC(=O)[O-]
LD50: 71 mg/kg

O=C1C=CC(=NCl)C=C1
LD50: 100 mg/kg

CCN(CC)N=Nc1cccnc1
LD50: 210 mg/kg

CNC(=O)Oc1ccccc1OC(CCl)OC (configuration not stated)
LD50: 35.4 mg/kg

O=C1N=C2c3ccccc3N=CN2C1=Cc1ccccc1
LD50: 325 mg/kg

CC(C)(C)c1cc(C2C(=O)c3ccccc3C2=O)cc(C(C)(C)C)c1
LD50: 194 mg/kg

CC(C)Oc1cc(-n2nc(C(C)(C)C)oc2=O)c(Cl)cc1Cl
LD50: 3500 mg/kg

CC(C)(CO)C(O)C#N (configuration not stated)
LD50: 310 mg/kg

CCOc1ccc2c(OS(=O)(=O)O)c(-c3sc4cc(OCC)ccc4c3OS(=O)(=O)O)sc2c1
LD50: 6700 mg/kg

S=C(C=Cc1ccc2c(c1)OCO2)N1CCOCC1
LD50: 285 mg/kg

CCOC(=O)C1OC1(C)c1ccccc1 (configuration not stated)
LD50: 5470 mg/kg

CCOC(=O)c1ccc(OC)cc1
LD50: 2040 mg/kg

CN1CCN(CC(=O)NN=Cc2ccc([N+](=O)[O-])o2)CC1
LD50: 1350 mg/kg

O=C(Nc1nc(C(F)(F)F)c(Cl)s1)c1cc(C(F)(F)F)cc(C(F)(F)F)c1
LD50: 69 mg/kg

CCNC(=O)C(SP(=S)(OC)OC)C(=O)NCC
LD50: 1000 mg/kg

O=C(Cl)c1ccc(C(=O)Cl)cc1
LD50: 2500 mg/kg

CN(C)c1ccc(N=Nc2cccc(C(=O)O)c2)cc1
LD50: 3760 mg/kg

CON(C(=O)c1cc(C)oc1C)C1CCCCC1
LD50: 3780 mg/kg

COP(=O)(OC)OC(Br)C(Br)(Br)Br (configuration not stated)
LD50: 184 mg/kg

O=c1c2cccnc2oc2c(Cl)cc(-c3nn[nH]n3)cc12
LD50: 16000 mg/kg

CN(C)C(=O)CN1C(=O)C2C3C=C(C(O)(c4ccccc4)c4ccccn4)C(C3=C(c3ccccc3)c3ccccn3)C2C1=O (configuration not stated)
LD50: 5.9 mg/kg

CCCC(C(=O)OCCN(CC)CC)(c1ccccc1)c1ccccc1
LD50: 2140 mg/kg

Oc1ccc(-c2ccc(O)cc2)cc1
LD50: 4920 mg/kg

COC(=O)C1=C(C)NC(C)=C(C(=O)OCCN(C)Cc2ccccc2)C1c1cccc([N+](=O)[O-])c1 (configuration not stated)
LD50: 184 mg/kg and 320 mg/kg

CCCCCOc1cccc(NC(=O)O[C@@H]2CCCC[C@H]2N2CCCC2)c1
LD50: 1030 mg/kg

CCN(Cc1ccccc1)N=O
LD50: 250 mg/kg

CCCN(C)C
LD50: 500 mg/kg

CCCN(N=O)C(N)=O
LD50: 480 mg/kg

Cc1c(Cl)cc2[nH]c(C(F)(F)F)nc2c1[N+](=O)[O-]
LD50: 31.4 mg/kg

C[C@H](NCC=C(c1ccsc1)c1ccsc1)[C@H](O)c1ccccc1
LD50: 6600 mg/kg

Clc1nc(Cl)c(Cl)c(Cl)c1Cl
LD50: 435 mg/kg

CC(C)CCOC(=S)S
LD50: 765 mg/kg

CNC(C)C1CCC(N)C(OC2C(N)CC(N)C(OC3OCC(C)(O)C(NC)C3O)C2O)O1 (configuration not stated)
LD50: 6600 mg/kg

COc1ccc(NC(=O)CC(C)=O)cc1
LD50: 1700 mg/kg

CC(C=O)c1ccccc1 (configuration not stated)
LD50: 2800 mg/kg

N#CC(Cl)(Cl)C#N
LD50: 130 mg/kg

Ic1ccc(Nc2nnc(CCN3c4ccccc4Sc4ccccc43)s2)cc1
LD50: 3100 mg/kg

CC(=O)CCc1ccc(-c2ccccc2)cc1
LD50: 1030 mg/kg

CCc1ccc([N+]([O-])=Cc2ccccc2)cc1
LD50: 1340 mg/kg

C=C(C)C(=O)OCCSCC
LD50: 7400 mg/kg

C=CCOC(=O)CCC
LD50: 250 mg/kg

CC(C)(C)NCC(O)COc1cccc2c1CCC(=O)N2 (configuration not stated)
LD50: 1330 mg/kg

ClCCN1CCCC(C(c2ccccc2)c2ccccc2)C1 (configuration not stated)
LD50: 970 mg/kg

BrCBr
LD50: 108 mg/kg

CCOC(=O)Cc1ccc(-c2ccccc2)cc1
LD50: 385 mg/kg

COc1ccc(C=C2C(=O)N=C3c4ccccc4N=CN23)cc1
LD50: 258 mg/kg

CC(N)CNCCCO (configuration not stated)
LD50: 5660 mg/kg

CCn1cc(C(O)CN(C)C)c2ccccc21 (configuration not stated)
LD50: 80 mg/kg

CCN(CCO)c1cccc(C)c1
LD50: 1370 mg/kg

CC(CN1c2ccccc2Sc2cccnc21)N(C)C (configuration not stated)
LD50: 1220 mg/kg

C[N+]12CCC(c3ccccc3)(CC1)C(=O)C2
LD50: 1480 mg/kg

N#CCNCC#N
LD50: 710 mg/kg

CC/C=C\CCOCC=O
LD50: 4100 mg/kg

O=C(O)CNCC(=O)O
LD50: 8070 mg/kg

CCOC(C1=NCCCN1)c1c(Cl)cccc1Cl (configuration not stated)
LD50: 625 mg/kg

Cc1ccc(C(=O)c2ccc(CC(=O)N3CCN(C)CC3)n2C)cc1
LD50: 1000 mg/kg

Cc1ccc(O)c([N+](=O)[O-])c1
LD50: 3360 mg/kg

CNNCc1ccc(C(=O)NC(C)C)cc1
LD50: 570 mg/kg

C1CN(SSSSN2CCOCC2)CCO1
LD50: 4800 mg/kg

COc1ccc2c(c1)c(CC(=O)Oc1ccccc1C(=O)O)c(C)n2C(=O)c1ccc(Cl)cc1
LD50: 59.5 mg/kg

CC(=O)CCCOC(C)=O
LD50: 6080 mg/kg

OC(CCCN1CCCCC1)(c1ccccc1)c1ccccc1
LD50: 515 mg/kg

Cc1cccc(C)c1NC(=O)c1cc(S(N)(=O)=O)c(Cl)cc1O
LD50: 1640 mg/kg

CCCCC[C@H](O)/C=C/[C@H]1[C@H](O)CC(=O)[C@@H]1C/C=C\CCCC(=O)O
LD50: 500 mg/kg

COC(=O)C=C(C)N
LD50: 1760 mg/kg

C[n+]1cc2c3c(ccc2c2ccc4cc5c(cc4c21)OCO5)OCO3
LD50: 1660 mg/kg

FC(F)(F)C(Cl)(Cl)C(Cl)(Cl)C(F)(F)F
LD50: 800 mg/kg

C[N+]1(C)CCCCC1
LD50: 270 mg/kg and 464 mg/kg

COc1ccc(OC)c2[nH]c(C(F)(F)F)nc12
LD50: 60 mg/kg

Cc1cc(Cl)ccc1/N=C/N(C)C
LD50: 225 mg/kg

N=C(N)NCCN1CCCCCCC1
LD50: 1050 mg/kg

CCOC(=O)c1noc(C)c1C(=O)c1ccccc1
LD50: 1000 mg/kg

N#CCCN1CC=C(c2cccc(C(F)(F)F)c2)CC1
LD50: 515 mg/kg

CCOC1CCC=CO1 (configuration not stated)
LD50: 6160 mg/kg

CCCCCCCN1C(C)=CSC1=Cc1scc(C)[n+]1CCCCCCC
LD50: 460 mg/kg

N#CC(C#N)=C(C#N)C#N
LD50: 5 mg/kg

Cc1ccc2ncccc2c1
LD50: 800 mg/kg

O=C(c1ccccc1)c1ccc2n1CC[C@H]2C(=O)O
LD50: 189 mg/kg

C=C[C@@]1(C)CC(=O)[C@]2(O)[C@@]3(C)[C@@H](O)CCC(C)(C)[C@@H]3[C@H](O)[C@H](OC(C)=O)[C@@]2(C)O1
LD50: 2550 mg/kg

O=[N+]([O-])c1cccc(C(F)(F)F)c1
LD50: 610 mg/kg

C=C(C)C(=O)OCCC#N
LD50: 7330 mg/kg

CCC1CCC(CC)O1 (configuration not stated)
LD50: 3400 mg/kg

NCCOC(=O)c1ccccc1
LD50: 9270 mg/kg

O=C(O)COc1ccc2ccccc2c1
LD50: 600 mg/kg

CN1C(=O)CN2CCc3ccccc3C2c2cc(Cl)ccc21 (configuration not stated)
LD50: 1730 mg/kg

CN(C)C(=O)c1ccccc1O
LD50: 2300 mg/kg

C=CC(=O)NC(C)C
LD50: 375 mg/kg

CC(=O)c1cccc([N+](=O)[O-])c1
LD50: 3250 mg/kg

CN(C)C(O)=Nc1ccc(-n2nc(C(C)(C)C)oc2=O)c(Cl)c1
LD50: 1000 mg/kg

CC(C)[C@]12CC(=O)[C@H](C)[C@H]1C2
LD50: 500 mg/kg

CC(C=O)Cc1ccc(C(C)(C)C)cc1 (configuration not stated)
LD50: 1390 mg/kg

CCCNNc1ccccc1
LD50: 13 mg/kg

NS(=O)(=O)CCl
LD50: 6050 mg/kg

OCCSSCCO
LD50: 173 mg/kg

N#CCON=C(C#N)c1ccccc1
LD50: 2280 mg/kg

O=P(CCn1c(Cc2ccccc2)nc2ccccc21)(OCCCl)OCCCl
LD50: 6200 mg/kg

CCOC(=O)C(Cl)Cc1cc(-n2nc(C)n(C(F)F)c2=O)c(F)cc1Cl (configuration not stated)
LD50: 5140 mg/kg

COc1cc([C@@H]2c3cc4c(cc3C(O[C@@H]3O[C@@H]5CO[C@@H](C)O[C@H]5[C@H](O)[C@H]3O)C3COC(=O)[C@@H]32)OCO4)cc(OC)c1O (some centres not stated)
LD50: 1780 mg/kg

Cc1ccc(NC(=O)CF)cc1
LD50: 7 mg/kg

CCN(CC)C(C)CN1c2ccccc2Sc2ccccc21 (configuration not stated)
LD50: 1700 mg/kg

CCCC(C)=NO
LD50: 1130 mg/kg

Nc1cnn(-c2ccccc2)c(=O)c1Br
LD50: 8500 mg/kg

CN(C)C(=O)C(CC[N@+]1([O-])CC[C@@](O)(c2ccc(Cl)cc2)CC1)(c1ccccc1)c1ccccc1
LD50: 172 mg/kg

CCCCN1C(=O)c2ccc([N+](=O)[O-])cc2C1=O
LD50: 1340 mg/kg

CC(=O)OC1CC2CCC3C(CCC4(C)C3CC(OC(C)=O)C4[N+]3(C)CCCCC3)C2(C)CC1[N+]1(C)CCCCC1 (configuration not stated)
LD50: 202 mg/kg

O=C(O)Cc1ccccc1Oc1ccc(Cl)cc1Cl
LD50: 2280 mg/kg

Nc1c(/N=N/c2ccc([N+](=O)[O-])cc2)c(S(=O)(=O)O)cc2cc(S(=O)(=O)O)c(/N=N/c3ccc(-c4ccc(/N=N/c5ccc(O)cc5)cc4)cc3)c(O)c12
LD50: 14700 mg/kg

COc1ccc([N+](=O)[O-])cc1CNCCCl
LD50: 28 mg/kg

CC[C@@H](CO)NC(=O)[C@@H]1C=C2c3cccc4c3c(cn4C)C[C@H]2N(C)C1
LD50: 2100 mg/kg

CN(C)Cc1ccccc1
LD50: 265 mg/kg

CCN(CC)C(=S)N/N=C/c1ccc([N+](=O)[O-])o1
LD50: 750 mg/kg

CC(C)NNC(=O)c1ccncc1
LD50: 365 mg/kg

CCOc1ccccc1N1CCN(CC=Cc2ccc3c(c2)CCC(=O)N3)CC1
LD50: 500 mg/kg

c1ccc2c(c1)Sc1ccccc1N2CCCN1CCOCC1
LD50: 1000 mg/kg

NC(=O)NO
LD50: 5760 mg/kg

COP(=S)(OC)SCc1nc(=O)o[nH]1
LD50: 10 mg/kg

c1coc(COCc2ccco2)c1
LD50: 210 mg/kg

Nc1ccc2[nH]c3ccc(N)cc3c2c1
LD50: 1040 mg/kg

C1CCc2nnnn2CC1
LD50: 140 mg/kg

O=C(O)CCCCCCCl
LD50: 1800 mg/kg

COP(=O)(OC)OC(=C(Br)Br)c1ccc(Cl)cc1Cl
LD50: 180 mg/kg

CC(=O)SCC[N+](C)(C)C
LD50: 100 mg/kg

CC(C=O)CCC(C)(O)C=O (configuration not stated)
LD50: 5890 mg/kg

CNC(C)CC1CCCC1 (configuration not stated)
LD50: 169 mg/kg

CCc1ccc(Oc2ccc(C)cc2CC(=O)O)c(Cl)c1
LD50: 2850 mg/kg

O=C(O)CCC(CC(=O)O)(C(=O)O)P(=O)(O)O (configuration not stated)
LD50: 4000 mg/kg

CCCCN(CCCCO)N=O
LD50: 1800 mg/kg

O=C(O)c1cc(N=Nc2ccc(-c3ccc(N=Nc4c(O)ccc(/N=N/c5cc(S(=O)(=O)O)ccc5O)c4O)cc3)cc2)ccc1O
LD50: 12100 mg/kg

CCC(CO)(CO)CO
LD50: 14100 mg/kg

Nc1cccc2cc(S(=O)(=O)O)ccc12
LD50: 14200 mg/kg

N#CC1(O)CCCCC1
LD50: 10 mg/kg

S=C(S)NCCNC(=S)S
LD50: 1850 mg/kg and 2850 mg/kg

CCCN=C(NCCC)C(OCC)c1ccccc1 (configuration not stated)
LD50: 95 mg/kg

C#CCOc1ccc(N)cc1C(=O)NCCCC
LD50: 864 mg/kg

O=COCC=Cc1ccccc1
LD50: 2900 mg/kg

O=C1NC(=O)C2(c3ccc(Cl)cc3)CC12 (configuration not stated)
LD50: 1550 mg/kg

CC(C)(C)C(O)/C(=C\c1ccc(Cl)cc1Cl)n1cncn1 (configuration not stated)
LD50: 474 mg/kg

COP(=O)(OC)Sc1ccc([N+](=O)[O-])cc1
LD50: 42.9 mg/kg

CC(=O)c1ccccc1[N+](=O)[O-]
LD50: 1600 mg/kg

O=C1CCc2cc(C(=O)CCCN3CC=C(c4ccccc4)CC3)ccc2N1
LD50: 500 mg/kg

CCS(=O)CC
LD50: 5650 mg/kg

O=c1c2ccccc2n(-c2cccc(C(F)(F)F)c2)c(=O)n1CCO
LD50: 810 mg/kg

CC(c1ccccc1)c1ccccc1CCl (configuration not stated)
LD50: 4700 mg/kg

CCN1CCNCC1
LD50: 2160 mg/kg

O=C(CF)NNc1ccccc1
LD50: 9.1 mg/kg

OCc1cccc(Oc2ccccc2)c1
LD50: 1500 mg/kg

COP(=S)(OC)SC(CBr)N1C(=O)c2ccccc2C1=O (configuration not stated)
LD50: 188 mg/kg
